In data set [1] the target is T1, Renin (Homo sapiens, UniProt P00797).
T1 sequence (P00797 whole entry): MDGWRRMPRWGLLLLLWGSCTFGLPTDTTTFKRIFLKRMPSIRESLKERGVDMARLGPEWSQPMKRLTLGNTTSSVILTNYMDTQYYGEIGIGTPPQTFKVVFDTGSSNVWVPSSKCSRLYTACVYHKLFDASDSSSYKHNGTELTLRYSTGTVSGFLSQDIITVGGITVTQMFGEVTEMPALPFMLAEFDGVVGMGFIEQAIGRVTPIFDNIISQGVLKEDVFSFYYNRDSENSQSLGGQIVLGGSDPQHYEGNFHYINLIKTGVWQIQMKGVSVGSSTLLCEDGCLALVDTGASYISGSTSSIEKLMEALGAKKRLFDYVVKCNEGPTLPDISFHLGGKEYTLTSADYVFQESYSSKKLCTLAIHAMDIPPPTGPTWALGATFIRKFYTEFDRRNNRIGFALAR
The experiment in a line: In vitro inhibition of purified human kidney renin.

Data set [2] deals with T1, Renin. Description: In vitro inhibition of renin in human plasma. It counts as cell-free.
Data set [3] is described as follows: Half-life was determined. In kind it is ADME. The settings on record: human.
Data set [4] deals with Cathepsin D (Homo sapiens, UniProt P07339). The experiment in a line: Selectivity against human cathepsin D.
Sequence of Cathepsin D (P07339 65-162 limits assumed): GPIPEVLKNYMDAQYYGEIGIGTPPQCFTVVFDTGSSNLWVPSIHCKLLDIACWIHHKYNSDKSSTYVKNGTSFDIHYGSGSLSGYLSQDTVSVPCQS
Sequence of Cathepsin D (P07339 169-412 limits assumed): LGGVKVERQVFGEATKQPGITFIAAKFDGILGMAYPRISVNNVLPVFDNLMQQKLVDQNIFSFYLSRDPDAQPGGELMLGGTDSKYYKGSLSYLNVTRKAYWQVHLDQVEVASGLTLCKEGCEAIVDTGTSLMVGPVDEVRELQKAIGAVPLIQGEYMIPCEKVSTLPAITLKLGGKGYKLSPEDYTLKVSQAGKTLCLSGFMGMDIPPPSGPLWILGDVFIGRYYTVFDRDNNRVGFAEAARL
Data set [5] concerns the target T2, Cathepsin E (Homo sapiens, UniProt P14091).
T2 sequence (P14091 whole entry): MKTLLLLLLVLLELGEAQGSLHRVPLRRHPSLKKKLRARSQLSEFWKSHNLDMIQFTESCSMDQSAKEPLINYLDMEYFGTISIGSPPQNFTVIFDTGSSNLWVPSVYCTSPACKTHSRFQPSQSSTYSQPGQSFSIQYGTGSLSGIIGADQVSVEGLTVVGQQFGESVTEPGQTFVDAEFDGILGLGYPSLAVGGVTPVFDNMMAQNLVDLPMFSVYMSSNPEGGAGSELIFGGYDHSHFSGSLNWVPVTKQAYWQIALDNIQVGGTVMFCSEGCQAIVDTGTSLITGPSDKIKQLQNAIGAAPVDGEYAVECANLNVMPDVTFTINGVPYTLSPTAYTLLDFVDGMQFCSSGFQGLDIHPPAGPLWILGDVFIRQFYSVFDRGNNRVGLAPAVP
Description: Selectivity against human cathepsin E.

The target of data set [6] is T3, Gastricsin (Homo sapiens, UniProt P20142).
T3 sequence (P20142 whole entry): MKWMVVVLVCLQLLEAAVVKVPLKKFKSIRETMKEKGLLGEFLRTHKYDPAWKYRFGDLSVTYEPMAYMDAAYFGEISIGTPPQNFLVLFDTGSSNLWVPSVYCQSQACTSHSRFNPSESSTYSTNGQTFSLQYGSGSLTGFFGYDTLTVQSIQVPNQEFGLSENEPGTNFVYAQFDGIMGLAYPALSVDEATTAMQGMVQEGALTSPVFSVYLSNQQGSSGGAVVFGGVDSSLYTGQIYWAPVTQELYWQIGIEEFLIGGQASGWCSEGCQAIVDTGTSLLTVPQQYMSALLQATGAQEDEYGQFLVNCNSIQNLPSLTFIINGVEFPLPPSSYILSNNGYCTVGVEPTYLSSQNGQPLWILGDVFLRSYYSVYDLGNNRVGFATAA
The experiment in a line: Selectivity against human gastricsin.

Data set [7] deals with Pepsin A (Homo sapiens, UniProt P0DJD9). Description: Selectivity against human pepsin.
Sequence of Pepsin A (P0DJD9 whole entry): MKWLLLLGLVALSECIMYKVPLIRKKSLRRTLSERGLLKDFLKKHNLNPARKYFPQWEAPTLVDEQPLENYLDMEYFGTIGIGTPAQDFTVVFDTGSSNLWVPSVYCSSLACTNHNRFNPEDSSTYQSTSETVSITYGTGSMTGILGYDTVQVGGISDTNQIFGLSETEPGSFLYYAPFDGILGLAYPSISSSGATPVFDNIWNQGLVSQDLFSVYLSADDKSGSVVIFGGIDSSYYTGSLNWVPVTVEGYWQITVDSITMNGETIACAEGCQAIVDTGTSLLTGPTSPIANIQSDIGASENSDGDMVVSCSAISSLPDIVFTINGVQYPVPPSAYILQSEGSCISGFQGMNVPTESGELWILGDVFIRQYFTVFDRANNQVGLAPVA

Each structure is given as a SMILES string.

On to `NC1CCN(C(=O)O[C@@H](Cc2ccccc2)C(=O)N[C@@H](Cc2cnc[nH]2)C(=O)N[C@@H](CC2CCCCC2)[C@@H](O)[C@@H](O)CCc2ccccn2)CC1`, for which the half-maximal inhibitory concentration (IC50) – broadly, the midpoint of a concentration-inhibition curve – in data set [1] turned out to be 0.53 nM; in data set [2], 0.37 nM.
Take `CC(C)(C)S(=O)(=O)C[C@@H](Cc1ccccc1)C(=O)N[C@@H](Cc1c[nH]cn1)C(=O)N[C@@H](CC1CCCCC1)[C@@H](O)[C@@H](O)CCc1ccccn1`: the half-life (in general, the time in which the quantity being followed falls by half) in data set [3] was found to be 2.85 h. Moreover, the results for the IC50 in data set [1] and in data set [2] were 0.17 nM and 0.43 nM, respectively.
As to `NC1CCN(C(=O)C[C@@H](Cc2cccc3ccccc23)C(=O)N[C@@H](Cc2cnc[nH]2)C(=O)N[C@@H](CC2CCCCC2)[C@@H](O)[C@@H](O)CCc2ccccn2)CC1`, the results for the IC50 in data set [1] and in data set [2] were 0.13 nM and 0.79 nM, respectively.
The matching figures for `CSC[C@H](NC(=O)[C@@H](CC(=O)N1CCC(N)CC1)Cc1ccccc1)C(=O)N[C@@H](CC1CCCCC1)[C@@H](O)[C@@H](O)CCc1ccccn1`: 0.26 nM and 0.25 nM.
In data set [3], `NC1CCN(S(=O)(=O)C[C@@H](Cc2ccccc2)C(=O)N[C@@H](Cc2cnc[nH]2)C(=O)N[C@@H](CC2CCCCC2)[C@@H](O)[C@@H](O)CCc2ccccn2)CC1` gave a half-life of roughly 5 h. For the same compound, the results for the IC50 in data set [1] and in data set [2] were 0.7 nM and 0.54 nM, respectively.
For the compound `CCC[C@H](NC(=O)[C@@H](CC(=O)N1CCC(N)CC1)Cc1ccccc1)C(=O)N[C@@H](CC1CCCCC1)[C@@H](O)[C@@H](O)CCc1ccccn1`, the figures for the IC50 in data set [1] and in data set [2] were 0.68 nM and 1.3 nM, respectively.
The corresponding values for `N[C@H]1CC[C@@H](S(=O)(=O)C[C@@H](Cc2ccccc2)C(=O)N[C@@H](Cc2cnc[nH]2)C(=O)N[C@@H](CC2CCCCC2)[C@@H](O)[C@@H](O)CCc2ccccn2)CC1` are 0.31 nM and 0.31 nM.
Regarding `NC1CCN(C(=O)C[C@@H](Cc2ccccc2)C(=O)N[C@@H](Cc2c[nH]cn2)C(=O)N[C@@H](CC2CCCCC2)[C@@H](O)[C@@H](O)CCc2ccccn2)CC1`, the half-life in data set [3] was 1.52 h. The IC50 in data set [4], in data set [5], in data set [6] and in data set [7] was greater than 100000 nM throughout.
Take `CN(CCN(C)C(=O)N1CCOCC1)C(=O)O[C@@H](Cc1ccccc1)C(=O)N[C@@H](Cc1c[nH]cn1)C(=O)N[C@@H](CC1CCCCC1)[C@@H](O)[C@@H](O)CCc1ccccn1`: the figures for the IC50 in data set [1] and in data set [2] were 0.16 nM and 0.14 nM, respectively.
Compound `COc1ccc(C[C@H](NC(=O)[C@H]2CC[C@@H](N)CC2)C(=O)N[C@@H](Cc2cnc[nH]2)C(=O)N[C@@H](CC2CCCCC2)[C@@H](O)[C@@H](O)CCc2ccccn2)cc1` showed a half-life in data set [3] of roughly 1.5 h. For the same compound, the IC50 in data set [1] turned out to be 4.2 nM; in data set [2], 5.3 nM.
As for `CCOC(=O)CCCCC(=O)N[C@@H](Cc1ccccc1)C(=O)N[C@@H](Cc1c[nH]cn1)C(=O)N[C@@H](CC1CCCCC1)[C@@H](O)[C@@H](O)CCc1ccccn1`, the IC50 in data set [1] is 0.69 nM; in data set [2], 0.75 nM.
In data set [3], `O=C(N[C@@H](Cc1cnc[nH]1)C(=O)N[C@@H](CC1CCCCC1)[C@@H](O)[C@@H](O)CCc1ccccn1)[C@@H](CC(=O)N1CCOCC1)Cc1ccccc1` yielded a half-life of 0.367 h. The IC50 in data set [1] and in data set [2] was 1.1 nM each time.
In turn, `N[C@H]1CC[C@@H](C(=O)N[C@@H](Cc2ccccc2)C(=O)N[C@@H](Cc2cnc[nH]2)C(=O)N[C@@H](CC2CCCCC2)[C@@H](O)[C@@H](O)CCc2ccccn2)CC1` gave a half-life in data set [3] of less than 0.05 h. Further, the IC50 in data set [1] was 0.5 nM; in data set [2] it was 0.47 nM.

The record behind these values is ChEMBL document CHEMBL1127052, “Renin inhibitors containing a pyridyl amino diol derived C-terminus” (J Med Chem, 1993).
